Laboratory results published in patent publication US20260215425A1, “NITRIFICATION INHIBITORS” (The University of Melbourne, priority 2022, published 2026).

Experiments:
N. europaea = assay: standard nitrification inhibition assay (NO2- production, Griess); assay type: cell-based, Nitrosomonas europaea; conditions: [NH4+]=3 mM, [inhibitor]=0.3 mM (10 mol %), pH 7.5, 30° C., 60 min
Experimental: (§1) Cells of N. multiformis and N. europaea were cultivated to the mid-exponential growth phase (OD600=0.1, [NO2^−] approximately 800 μM) and harvested by filtration onto 0.2 μm membrane filters (Mixed Cellulose Ester (MCE), Sigma Aldrich). The cells were washed with 2×100 mL of 0.1 M sodium phosphate buffer (NaPB), containing 0.2 mM MgSO4 at pH 7.5. The cells were washed from the filter paper by transferring it to a sterile 50 mL tube and resuspending in NaPB (15 mL), followed by 5 s of vortexing (Ratek, Australia) and 3 s of sonication (Vevor, Australia). […] Experiments were performed in triplicate.
(§2) In a deep 96-well plate (2 mL capacity), 980 μL of the bacterial inoculum (OD600=0.03) was added to the inhibitor (10 μL, 30 mmol L^−1 in Milli-Q water), the solutions were mixed thoroughly and pre-incubated in the dark for 5 minutes at 100 rpm and 30° C. (NH4)2SO4 (10 μL, 150 mM, from a prepared sterile solution containing 19.8 g L^−1 (NH4)2SO4 in Milli-Q water) was then added using a multi-channel pipette. The plate was covered with a with an O2 permeable membrane to ensure aeration (Breathe-Easy® sealing membrane, Sigma Aldrich) and incubated in a temperature-regulated rotary incubator (Ratek, Australia) in the dark for 60 minutes at 30° C. and 100 rpm. An aliquot of the reaction solution ([…]) was transferred to a 96-well spectrophotometric plate to which 50 µL of Griess reagent was added. The colour was allowed to develop for 15 minutes at room temperature, and the absorbance was measured at 540 nm. Each assay was accompanied by control treatments to determine the 0% and 100% NO2 signal. The percentage inhibition was calculated according to eqn. 1 from the NO2 production of the cells in NaPB (i) without additive (‘untreated cells’: 0% signal), (ii) with [NH4^+]=3 mM (‘uninhibited’ cells: 100% signal) and (iii) with [NH4^+]=3 mM and [inhibitor]=0.3 mM and 0.03 mM (10 mol % and 1 mol % of [NH4^+], ‘inhibited cells’). Experiments were performed in triplicate.

N. multiformis = assay: as above; assay type: cell-based, Nitrosospira multiformis; conditions: [NH4+]=3 mM, [inhibitor]=0.3 mM (10 mol %), pH 7.5, 30° C., 60 min
Experimental: as §1, §2

soil A = assay: soil incubation, NH4+ and NO3- in soil A; conditions: 5 mol % of applied fertiliser-N, 21 days
Experimental: Soils used in these studies were air-dried, ground and sieved (2 mm) prior to use. Soil microcosm incubations were carried out in 250 mL polypropylene specimen containers (Sarstedt, Germany), containing 20 g oven dry-weight equivalent of soil. Microcosms were treated with half the volume of water required to meet the desired water-filled pore space (WFPS %) of 60% and pre-incubated at 25° C. for seven days to revive soil microbial activity. Following pre-incubation, the remaining volume to reach the WFPS % was applied as one of the treatment solutions: (1) fertiliser ((NH4)2SO4,) 100 mg kg^−1, (2) fertiliser+0.5 mol % 4-MPT, (3) fertiliser+2.5 mol % 4-MPT, (4) fertiliser+5 mol % 4-MPT or (5) fertiliser+5 mol % compound 1, with three replicates of each treatment per time interval (n=3). Throughout the incubation period soil microcosms were kept aerated by removing the lid for 10 minutes every 2-3 days to allow gas exchange, and moisture levels were replenished via addition of Milli-Q water as required. At the end of the desired incubation period (i.e., after 0, 3, 7, 14, and 21 days, respectively), soil microcosms were removed and destructively sampled by treating with 2 M aqueous potassium chloride solution (KCl, 100 mL) and shaking for 1 h. Soil-KCl solutions were filtered (Whatman No. 42), and the filtrates were stored at −20° C. until the conclusion of the experiment, when all KCl extracts were analysed for the concentration of soil mineral nitrogen from ammonium (NH4^+—N) and from nitrate (NO3^−—N; the conversion of NO2 to NO3^− in soils is very rapid) after appropriate dilutions using Segmented Flow Analysis (San++, Skalar, Breda, The Netherlands). Results are reported as the mean of three replicates, errors reported are standard errors of the mean. Errors associated with raw data were carried through calculations using standard error propagation protocols.
To determine the nitrification inhibitory effect of 4-MPT in vivo, soil incubations were performed by measuring concentration-time profiles for NH4^+ and NO3^− in an acidic Australian soil (soil A, pH=5.9) over 21 days. 4-MPT was tested at three different concentrations (0.5 mol %, 2.5 mol % and 5 mol % of applied fertiliser-N) and compared with the alkyl-substituted compound 1 (5 mol % of applied fertiliser-N) to confirm the requirement of the N-propargyl substitutent for inhibitory activity (FIG. 5).

CCCn1cc(C)nn1 [Compound 1, 4-Methyl-1-(n-propyl)-1H-1,2,3-triazole]
% Inhibition NE (N. europaea): complete loss of inhibitory activity | % Inhibition NM (N. multiformis): complete loss of inhibitory activity | NH4+ loss / conversion in soil (soil A): negligible levels of NH4^+ remaining after 21 days of incubation
